Test results from ChEMBL document CHEMBL4196088, “Induction of cell killing and autophagy by amphiphilic pyrrolidine derivatives on human pancreatic cancer cells” (Eur J Med Chem, 2018).
Active and inactive are the calls of the source. The calls are words filed in the database; no cut-off is given here.

Key:
BXPC-3 [1] = assay: Induction of apoptosis in human BxPC3 cells assessed as accumulation at sub-G0/G1 phase at 20 uM after 24 hrs by propidium iodide staining based flow cytometry (reference value: 2.3%); type: functional
BXPC-3 [2] = assay: Induction of apoptosis in human BxPC3 cells assessed as accumulation at sub-G0/G1 phase at 20 uM after 48 hrs by propidium iodide staining based flow cytometry (reference value: 2.8%); type: functional
BXPC-3 [3] = assay: Induction of apoptosis in human BxPC3 cells assessed as accumulation at sub-G0/G1 phase harboring pSFFV-Bcl-XL at 20 uM after 24 hrs by propidium iodide staining based flow cytometry (reference value: 1.2%); type: functional
BXPC-3 [4] = assay: Induction of apoptosis in human BxPC3 cells assessed as accumulation at sub-G0/G1 phase harboring pSFFV-Bcl-XL at 20 uM after 48 hrs by propidium iodide staining based flow cytometry (reference value: 1.3%); type: functional
BXPC-3 [5] = assay: Induction of apoptosis in human BxPC3 cells assessed as accumulation at sub-G0/G1 phase harboring pSFFV-Bcl-XL at 20 uM after 72 hrs by propidium iodide staining based flow cytometry (reference value: 1.3%); type: functional
PANC-1 [6] = assay: Induction of apoptosis in human PANC1 cells assessed as accumulation at sub-G0/G1 phase at 20 uM after 24 hrs by propidium iodide staining based flow cytometry (reference value: 0.6 to 0.7%); type: functional
PANC-1 [7] = assay: Induction of apoptosis in human PANC1 cells assessed as accumulation at sub-G0/G1 phase at 20 uM after 48 hrs by propidium iodide staining based flow cytometry (reference value: 0.2 to 2.9%); type: functional
PANC-1 [8] = assay: Induction of apoptosis in human PANC1 cells assessed as accumulation at sub-G0/G1 phase at 20 uM after 72 hrs by propidium iodide staining based flow cytometry (reference value: 1.6 to 3.2%); type: functional
PK9 [9] = assay: Induction of apoptosis in human PK9 cells assessed as accumulation at sub-G0/G1 phase at 20 uM after 48 hrs by propidium iodide staining based flow cytometry (reference value: 3.8%); type: functional
PK9 [10] = assay: Induction of apoptosis in human PK9 cells assessed as accumulation at sub-G0/G1 phase at 20 uM after 72 hrs by propidium iodide staining based flow cytometry (reference value: 4%); type: functional
Fibroblast [11] = assay: Induction of apoptosis in human primary fibroblasts at 20 uM after 24 hrs by propidium iodide staining based flow cytometry (reference value: 4.8%); type: cell-based
Fibroblast [12] = assay: Induction of apoptosis in human primary fibroblasts at 20 uM after 48 hrs by propidium iodide staining based flow cytometry (reference value: 6.1%); type: cell-based
Fibroblast [13] = assay: Induction of apoptosis in human primary fibroblasts at 20 uM after 72 hrs by propidium iodide staining based flow cytometry (reference value: 6.7%); type: cell-based
[14] = Induction of apoptosis in HPNE cells assessed as accumulation at sub-G0/G1 phase at 20 uM after 24 hrs by propidium iodide staining based flow cytometry (reference value: 0.6%); type: cell-based; settings: human
[15] = Induction of apoptosis in HPNE cells assessed as accumulation at sub-G0/G1 phase at 20 uM after 48 hrs by propidium iodide staining based flow cytometry (reference value: 0.7%); type: cell-based; settings: human
PANC-1 [16] = assay: Induction of apoptosis in human PANC1 cells assessed as accumulation at sub-G0/G1 phase at 10 uM after 24 hrs by propidium iodide staining based flow cytometry (reference value: 0.6 to 0.7%); type: functional
PANC-1 [17] = assay: Induction of apoptosis in human PANC1 cells assessed as accumulation at sub-G0/G1 phase at 10 uM after 48 hrs by propidium iodide staining based flow cytometry (reference value: 0.2 to 2.9%); type: functional
BXPC-3 [18] = assay: Induction of apoptosis in human BxPC3 cells assessed as accumulation at sub-G0/G1 phase at 10 uM after 48 hrs by propidium iodide staining based flow cytometry (reference value: 2.8%); type: functional
BXPC-3 [19] = assay: Induction of apoptosis in human BxPC3 cells harboring pSFFV-Bcl-XL assessed as accumulation at sub-G0/G1 phase at 10 uM after 48 hrs by propidium iodide staining based flow cytometry (reference value: 1.9%); type: functional
BXPC-3 [20] = assay: Induction of apoptosis in human BxPC3 cells harboring pSFFV-Bcl-XL assessed as accumulation at sub-G0/G1 phase at 10 uM after 72 hrs by propidium iodide staining based flow cytometry (reference value: 2%); type: functional
PK9 [21] = assay: Induction of apoptosis in human PK9 cells assessed as accumulation at sub-G0/G1 phase at 10 uM after 24 hrs by propidium iodide staining based flow cytometry (reference value: 2.2%); type: functional
Fibroblast [22] = assay: Induction of apoptosis in human primary fibroblasts assessed as accumulation at sub-G0/G1 phase at 10 uM after 48 hrs by propidium iodide staining based flow cytometry (reference value: 6.1%); type: cell-based
MIA PaCa-2 [23] = assay: Induction of apoptosis in human MIAPaCa2 cells assessed as live cells at 20 uM after 48 hrs by Annexin V-FITC/propidium iodide staining based flow cytometry (reference value: 86.79%); type: functional
MIA PaCa-2 [24] = assay: Induction of apoptosis in human MIAPaCa2 cells assessed as early apoptotic cells at 20 uM after 48 hrs by Annexin V-FITC/propidium iodide staining based flow cytometry (reference value: 5.16%); type: functional
MIA PaCa-2 [25] = assay: Induction of apoptosis in human MIAPaCa2 cells assessed as late apoptotic cells at 20 uM after 48 hrs by Annexin V-FITC/propidium iodide staining based flow cytometry (reference value: 7.4%); type: functional
MIA PaCa-2 [26] = assay: Induction of apoptosis in human MIAPaCa2 cells assessed as necrotic cells at 20 uM after 48 hrs by Annexin V-FITC/propidium iodide staining based flow cytometry (reference value: 0.63%); type: functional
MIA PaCa-2 [27] = assay: Induction of apoptosis in human MIAPaCa2 cells assessed as increase in cleaved PARP protein expression at 20 uM after 15 to 48 hrs by Western blot analysis; type: functional, cell-based
BXPC-3 [28] = assay: Induction of apoptosis in human BxPC3 cells assessed as increase in cleaved PARP protein expression at 20 uM after 15 to 48 hrs by Western blot analysis; type: functional, cell-based
BXPC-3 [29] = assay: Induction of apoptosis in human BxPC3 cells assessed as accumulation at sub-G0/G1 phase at 20 uM after 24 to 48 hrs in presence of caspase inhibitor zVAD-fmk by propidium iodide staining based flow cytometry; type: functional, cell-based
MIA PaCa-2 [30] = assay: Induction of autophagy in human MIAPaCa2 cells assessed as increase in LC3-2 protein expression at 20 uM after 15 to 48 hrs by Western blot analysis; type: functional, cell-based
BXPC-3 [31] = assay: Induction of autophagy in human BxPC3 cells assessed as increase in LC3-2 protein expression at 20 uM after 15 to 48 hrs by Western blot analysis; type: functional, cell-based
BXPC-3 [32] = assay: Induction of apoptosis in human BxPC3 cells assessed as accumulation at sub-G0/G1 phase at 20 uM after 48 hrs in presence of autophagy inhibitor 3-MA by propidium iodide staining based flow cytometry; type: functional, cell-based
BXPC-3 [33] = assay: Induction of apoptosis in human BxPC3 cells assessed as accumulation at sub-G0/G1 phase at 20 uM after 48 hrs in presence of autophagy inhibitor chloroquine by propidium iodide staining based flow cytometry; type: functional, cell-based

With `CCCCCC/C=C\CCCCCCCCOC[C@H]1NC[C@H](O)[C@@H]1O` the Activity (BXPC-3 [1]) was 15.8%, the Activity (BXPC-3 [2]) was 33.7% and the Activity (BXPC-3 [3]) was 2.8%. The Activity (BXPC-3 [4]) was 6.7%, the Activity (BXPC-3 [5]) was 8.6% and the Activity (PANC-1 [6]) was 5.3%. For the same compound, the Activity (PANC-1 [7]) was 14.5%, the Activity (PANC-1 [8]) was 27.1% and the Activity (PK9 [9]) was 20%. For the same compound, the Activity (PK9 [10]) was 28.6%, the Activity (Fibroblast [11]) was 9.2% and the Activity (Fibroblast [12]) was 13.9%. It also gave an Activity (Fibroblast [13]) of 18.7%, an Activity [14] of 70.6% and an Activity [15] of 75.7%. For the same compound, the Activity (PANC-1 [16]) was 6.7%, the Activity (PANC-1 [17]) was 7.1% and the Activity (BXPC-3 [18]) was 12.8%. It also gave an Activity (BXPC-3 [19]) of 3.7%, an Activity (BXPC-3 [20]) of 4.1% and an Activity (PK9 [21]) of 3.8%. For the same compound, the Activity (Fibroblast [22]) was 8.7%, the Activity (MIA PaCa-2 [23]) was 4.4% and the Activity (MIA PaCa-2 [24]) was 47.46%. For the same compound, the Activity (MIA PaCa-2 [25]) was 44.69%, the Activity (MIA PaCa-2 [26]) was 3.44% and the Activity (MIA PaCa-2 [27]) was “Active”. For the same compound, the Activity (BXPC-3 [28]) was “Active”, the Activity (BXPC-3 [29]) was “inactive” and the Activity (MIA PaCa-2 [30]) was “Active”. The Activity (BXPC-3 [31]) was “Active”, the Activity (BXPC-3 [32]) was “Active” and the Activity (BXPC-3 [33]) was “Active”.

With `CCCCCCCCCCCCCCCCCCOCC(COP(=O)([O-])OCC[N+](C)(C)C)OC` (stereo unspecified) [EDELFOSINE] the Activity (BXPC-3 [1]) was 16.8%, the Activity (BXPC-3 [2]) was 28.9% and the Activity (BXPC-3 [3]) was 3%. For the same compound, the Activity (BXPC-3 [4]) was 5%, the Activity (BXPC-3 [5]) was 2.8% and the Activity (PANC-1 [6]) was 8.46%. It also gave an Activity (PANC-1 [7]) of 16.2%, an Activity (PANC-1 [8]) of 23.2% and an Activity (PK9 [9]) of 11.2%. The Activity (PK9 [10]) was 15.6%, the Activity (Fibroblast [11]) was 7.3% and the Activity (Fibroblast [12]) was 8.6%. For the same compound, the Activity (Fibroblast [13]) was 9.8%, the Activity [14] was 2.8% and the Activity [15] was 7.3%. For the same compound, the Activity (PANC-1 [16]) was 3.2%, the Activity (PANC-1 [17]) was 11.5% and the Activity (BXPC-3 [18]) was 16.5%. For the same compound, the Activity (BXPC-3 [19]) was 3.7%, the Activity (BXPC-3 [20]) was 2.6% and the Activity (PK9 [21]) was 3.8%. The Activity (Fibroblast [22]) was 7.2%, the Activity (MIA PaCa-2 [23]) was 2.49% and the Activity (MIA PaCa-2 [24]) was 49.78%. The Activity (MIA PaCa-2 [25]) was 45.92%, the Activity (MIA PaCa-2 [26]) was 1.79% and the Activity (MIA PaCa-2 [27]) was “Active”. For the same compound, the Activity (BXPC-3 [28]) was “Active”, the Activity (BXPC-3 [29]) was “inactive” and the Activity (MIA PaCa-2 [30]) was “Active”. For the same compound, the Activity (BXPC-3 [31]) was “Active”, the Activity (BXPC-3 [32]) was “Active” and the Activity (BXPC-3 [33]) was “Active”.
